Consider 14 molecules from PubChem BioAssay (NCI).

Among the test systems are IGROV1 ovarian; DU-145 prostate; SNB-75 CNS; MALME-3M melanoma; NCI-H460 lung; SNB-19 CNS; SK-MEL-2 melanoma; ACHN renal; OVCAR-4 ovarian; HOP-92 NSCLC.
What all share (test): growth of human tumour cells (NCI), 48 h

Several values for one entry are separate records, joined by “and”; a condition that tells them apart may be missing. Identical values can stand only once.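 Cells were grown in 96-well plates and exposed to each compound for 48 hours at five concentrations; endpoints were interpolated linearly between bracketing concentrations, or set to the highest concentration if not reached. GI50 is the concentration that inhibits growth by half. The concentration for full growth arrest is given as TGI.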

Take `Fc1cc2[nH]ncc2c2c3c(c(-c4cn[nH]c4C(F)(F)F)nc12)CCCC3`: the GI50 is 0.802 µM in the assay with IGROV1 ovarian; 1.72 µM with DU-145 prostate; 1.5 µM in the assay with SNB-75 CNS; 1.91 µM in the assay on MALME-3M melanoma; 1.16 µM in the assay with NCI-H460 lung; 2.29 µM in the assay on SNB-19 CNS. Also, the GI50 with SK-MEL-2 melanoma was 2.07 µM; with ACHN renal, 0.947 µM. Moreover, the TGI is 5.88 µM in the assay with IGROV1 ovarian; greater than 100 µM in the assay on DU-145 prostate; 2.95 µM in the assay on SNB-75 CNS; 5.41 µM in the assay on MALME-3M melanoma; 9.92 µM in the assay with NCI-H460 lung; 9.37 µM with SNB-19 CNS. Moreover, the TGI with SK-MEL-2 melanoma is 5.67 µM; with ACHN renal, 7.58 µM.

Take `O=C1CSCc2sccc21`: the TGI in the assay with IGROV1 ovarian, with DU-145 prostate, in the assay on SNB-75 CNS, in the assay with NCI-H460 lung, in the assay with SNB-19 CNS and in the assay with SK-MEL-2 melanoma was greater than 100 µM each time. The TGI in the assay on ACHN renal and in the assay with OVCAR-4 ovarian was greater than 100 µM each time.

Take `CC1=CC(=O)C2=C(C)CCC3C(C)C(=O)OC3C12` (stereo not drawn): the TGI in the assay on IGROV1 ovarian, with HOP-92 NSCLC, with DU-145 prostate, with MALME-3M melanoma, with NCI-H460 lung and with SNB-19 CNS was greater than 100 µM throughout. For the same molecule, the TGI in the assay on SK-MEL-2 melanoma, with ACHN renal and in the assay with OVCAR-4 ovarian was greater than 100 µM throughout.

Take `COc1ccc(C(c2cc(OC)c(OC)c(OC)c2)n2ccnc2)cc1O` (stereo not drawn): the GI50 in the assay with IGROV1 ovarian is 0.862 µM; in the assay with HOP-92 NSCLC, 28.6 µM; in the assay on DU-145 prostate, 0.407 µM; in the assay on NCI-H460 lung, 0.377 µM; with SNB-19 CNS, 0.532 µM; in the assay on ACHN renal it was 0.693 µM. Also, in the assay with OVCAR-4 ovarian, the GI50 is 3.44 µM. Moreover, the TGI with IGROV1 ovarian, with HOP-92 NSCLC, in the assay with DU-145 prostate, in the assay on NCI-H460 lung, in the assay with SNB-19 CNS and in the assay on ACHN renal was greater than 100 µM in each case. In the assay with OVCAR-4 ovarian, this molecule came in with a TGI greater than 100 µM.

Turning to `Cc1cc(O)c(=O)cc2c1C[C@H]1CC(C)(C)/C=C/C[C@]3(C)Oc4cc(=O)c(O)cc(C)c4C[C@H]3C[C@H](O)[C@@]1(C)O2`, the GI50 with IGROV1 ovarian was 0.025 µM; in the assay on DU-145 prostate, less than 0.01 µM; in the assay with SNB-75 CNS, 0.0262 µM; in the assay with MALME-3M melanoma, 0.0282 µM; with NCI-H460 lung, less than 0.01 µM; in the assay with SNB-19 CNS, less than 0.01 µM. The GI50 with ACHN renal is less than 0.01 µM; in the assay on OVCAR-4 ovarian, 0.0172 µM. Besides, the TGI with IGROV1 ovarian was 7.46 µM; in the assay with DU-145 prostate it was greater than 75.9 µM; in the assay with SNB-75 CNS it was 42 µM; with MALME-3M melanoma, 0.544 µM; with NCI-H460 lung it was 10.3 µM; in the assay on SNB-19 CNS, greater than 67.3 µM. For the same molecule, the TGI in the assay with ACHN renal was 14.5 µM; in the assay on OVCAR-4 ovarian, greater than 100 µM.

Consider `COc1ccc(/C=C(/C#N)C(N)=O)c(OC)c1`, for which the TGI with IGROV1 ovarian, in the assay on HOP-92 NSCLC, with DU-145 prostate, with SNB-75 CNS, in the assay on NCI-H460 lung and with SNB-19 CNS was greater than 100 µM throughout. Further, the TGI with SK-MEL-2 melanoma, in the assay on ACHN renal and in the assay with OVCAR-4 ovarian was greater than 100 µM each time.

On to `COc1cc2c(cc1OC)[C@@H](Nc1ccc(C#N)cc1)C1COC(=O)[C@@H]1C2c1cc(OC)c(O)c(OC)c1` (stereo partly drawn), for which the GI50 in the assay with IGROV1 ovarian was 7.06 µM and 5.07 µM; with MALME-3M melanoma, 1.36 µM and 2.47 µM; in the assay with SK-MEL-2 melanoma, 3.7 µM and 1.49 µM; in the assay on OVCAR-4 ovarian, 19.1 µM and 26.8 µM. Also, the TGI in the assay on IGROV1 ovarian is 95 µM and > 100 µM; in the assay on DU-145 prostate, greater than 100 µM; in the assay with SNB-75 CNS, 4 µM and 2.11 µM; in the assay on MALME-3M melanoma, 70.7 µM and 44.2 µM; with NCI-H460 lung, 1.05 µM and 1.72 µM; with SNB-19 CNS, 95 µM. Further, the TGI in the assay on SK-MEL-2 melanoma is 23 µM and 5.86 µM; with ACHN renal, 1.01 µM; in the assay on OVCAR-4 ovarian it was 75.1 µM and > 100 µM.

For `O=C(Nc1ccc2[nH]nc(-c3ccncc3)c2c1)[C@@H]1CCN(CC(=O)N2CCN(c3ccc(-c4ncccn4)cc3)CC2)C1`, the GI50 in the assay on IGROV1 ovarian was 0.964 µM; with HOP-92 NSCLC, 0.105 µM; in the assay with DU-145 prostate it was 7.58 µM; with SNB-75 CNS, 18.2 µM; in the assay with NCI-H460 lung, greater than 100 µM; with SNB-19 CNS, greater than 100 µM. In addition, the GI50 in the assay with SK-MEL-2 melanoma was 0.0269 µM; in the assay on ACHN renal, 2.08 µM; in the assay on OVCAR-4 ovarian, 5.91 µM. In addition, the TGI in the assay on IGROV1 ovarian was greater than 100 µM; with HOP-92 NSCLC, 1.81 µM; with DU-145 prostate, greater than 100 µM; in the assay on SNB-75 CNS, greater than 90.8 µM; with NCI-H460 lung it was greater than 100 µM; in the assay with SNB-19 CNS, greater than 100 µM. Further, the TGI with SK-MEL-2 melanoma was 0.223 µM; in the assay on ACHN renal, greater than 100 µM; in the assay with OVCAR-4 ovarian, greater than 100 µM.

As to `C=C1CC[C@@H]2[C@](C)(COC(C)=O)[C@H](OC(C)=O)CC[C@@]2(C)[C@@H]1CC(Nc1ccc(S(=O)(=O)NC(C)=O)cc1)C1=CCOC1=O` (stereo partly drawn), the GI50 in the assay with IGROV1 ovarian was 5.31 µM; in the assay on HOP-92 NSCLC, 6.5 µM; with DU-145 prostate, 2.8 µM; in the assay with SNB-75 CNS it was 3.08 µM; with NCI-H460 lung it was 6.72 µM; in the assay with SNB-19 CNS, 8.19 µM. Moreover, the GI50 in the assay with SK-MEL-2 melanoma was 8.68 µM; with ACHN renal, 7.54 µM; in the assay on OVCAR-4 ovarian it was 4.14 µM. In addition, the TGI in the assay with IGROV1 ovarian was 15.4 µM; with HOP-92 NSCLC it was 15.8 µM; in the assay on DU-145 prostate, 9.74 µM; in the assay with SNB-75 CNS, 12.7 µM; with NCI-H460 lung, 17.9 µM; in the assay with SNB-19 CNS it was 18.9 µM. Further, the TGI in the assay with SK-MEL-2 melanoma worked out at 19.1 µM; in the assay on ACHN renal it was 16.5 µM; in the assay with OVCAR-4 ovarian, 13.7 µM.

In the case of `N.N.N.N.N.[Co+3].[I-].[N-]=[N+]=[N-]`, the GI50 was greater than 100 µM in the assay on IGROV1 ovarian; greater than 100 µM in the assay with HOP-92 NSCLC; 76.9 µM in the assay with SNB-75 CNS; greater than 100 µM in the assay with MALME-3M melanoma; greater than 100 µM in the assay on NCI-H460 lung; greater than 100 µM in the assay with SNB-19 CNS. Also, the GI50 in the assay on SK-MEL-2 melanoma, in the assay on ACHN renal and with OVCAR-4 ovarian was greater than 100 µM each time. Also, the TGI with IGROV1 ovarian, in the assay with HOP-92 NSCLC, in the assay on SNB-75 CNS, in the assay on MALME-3M melanoma, with NCI-H460 lung and in the assay on SNB-19 CNS was greater than 100 µM throughout. The TGI with SK-MEL-2 melanoma, in the assay on ACHN renal and in the assay with OVCAR-4 ovarian was greater than 100 µM throughout.

Regarding `O=C1C2Nc3ccccc3SC2C(=O)N1c1ccc(Br)cc1` (stereo not drawn), the TGI in the assay with IGROV1 ovarian is greater than 100 µM; in the assay with HOP-92 NSCLC it was 33.2 µM; in the assay with SNB-75 CNS, 60.7 µM; with MALME-3M melanoma it was greater than 100 µM; in the assay with NCI-H460 lung, greater than 100 µM; in the assay on SNB-19 CNS, greater than 100 µM. For the same molecule, the TGI with SK-MEL-2 melanoma was greater than 100 µM; with ACHN renal, greater than 100 µM; in the assay with OVCAR-4 ovarian it was 74.2 µM.

Turning to `COc1cc(C2Cc3ncccc3-c3[nH]c(=O)c4cccnc4c32)cc(OC)c1OC` (stereo not drawn), the GI50 was 0.46 µM in the assay on IGROV1 ovarian; 0.428 µM with DU-145 prostate; 0.255 µM in the assay with SNB-75 CNS; greater than 100 µM in the assay on MALME-3M melanoma; 0.429 µM in the assay on NCI-H460 lung; 0.823 µM with SNB-19 CNS. The GI50 in the assay with SK-MEL-2 melanoma is 0.485 µM; with ACHN renal, 0.669 µM; in the assay on OVCAR-4 ovarian it was 1.12 µM. The TGI in the assay on IGROV1 ovarian, in the assay with DU-145 prostate, in the assay with SNB-75 CNS, in the assay with MALME-3M melanoma, with NCI-H460 lung and in the assay with SNB-19 CNS was greater than 100 µM in each case. For the same molecule, the TGI in the assay with SK-MEL-2 melanoma, in the assay with ACHN renal and in the assay on OVCAR-4 ovarian was greater than 100 µM each time.

`Cc1ccc(S(=O)(=O)OCCn2cnc3nc(NC(=O)c4ccccc4)[nH]c(=O)c32)cc1`: the TGI in the assay with IGROV1 ovarian, with HOP-92 NSCLC, in the assay on SNB-75 CNS, with MALME-3M melanoma, in the assay on NCI-H460 lung and in the assay on SNB-19 CNS was greater than 100 µM in each case. Also, the TGI in the assay on SK-MEL-2 melanoma, in the assay with ACHN renal and in the assay with OVCAR-4 ovarian was greater than 100 µM each time.

Take `Cc1cc(S(=O)(=O)Nc2nc3ccccc3o2)c(SCc2ccccc2)cc1Cl`: the GI50 with IGROV1 ovarian was 48.9 µM; with HOP-92 NSCLC, 4.65 µM; in the assay on DU-145 prostate, 26.5 µM; in the assay with SNB-75 CNS, 38.6 µM; in the assay with NCI-H460 lung, 15.5 µM; in the assay with SNB-19 CNS, 21.6 µM. The figures for the GI50 in the assay on SK-MEL-2 melanoma, in the assay with ACHN renal and in the assay on OVCAR-4 ovarian were 48.6 µM, 17.9 µM and 25.4 µM, respectively. The TGI is greater than 100 µM with IGROV1 ovarian; 20.9 µM in the assay on HOP-92 NSCLC; 77.9 µM with DU-145 prostate; 90.8 µM in the assay with SNB-75 CNS; 52.2 µM with NCI-H460 lung; 67.8 µM with SNB-19 CNS. The results for the TGI in the assay with SK-MEL-2 melanoma, in the assay on ACHN renal and in the assay with OVCAR-4 ovarian were greater than 100 µM, 38.4 µM and 67.9 µM, respectively.
